According to ChEMBL document CHEMBL1150553, “Diaryl phosphate derivatives act as pro-drugs of AZT with reduced cytotoxicity compared to the parent nucleoside” (Bioorg Med Chem Lett, 1994):

What was measured:
CCRF-CEM [1] = assay: In vitro inhibitory activity against replication of HIV-1 in human lymphocyte CEM cells; type: functional, cell-based
CCRF-CEM [2] = assay: In vitro inhibitory activity against replication of HIV-2 in human lymphocyte CEM cells; type: functional, cell-based
MT4 [3] = assay: Cytotoxicity against human lymphocyte MT-4 cells; type: functional
MT4 [4] = assay: In vitro inhibitory activity against replication of HIV-1 in human lymphocyte MT-4 cells; type: functional, cell-based
CCRF-CEM [5] = assay: In vitro inhibitory activity against replication of HIV-2 in human lymphocyte thymidine kinase deficient CEM cells; type: functional, cell-based
MT4 [6] = assay: In vitro inhibitory activity against replication of HIV-2 in human lymphocyte MT-4 cells; type: functional, cell-based

SMILES | EC50 (CCRF-CEM [1]) [nM] | EC50 (CCRF-CEM [2]) [nM] | CC50 (MT4 [3]) [nM] | EC50 (MT4 [4]) [nM] | EC50 (CCRF-CEM [5]) [nM] | EC50 (MT4 [6]) [nM]
Cc1cn(C2CC(N=[N+]=[N-])C(COP(=O)(Oc3ccccc3[N+](=O)[O-])Oc3ccccc3[N+](=O)[O-])O2)c(=O)[nH]c1=O (configuration not stated) | 5.3 | 6.2 | 42000 | 12.1 | > 100000 | 14
Cc1cn(C2CC(N=[N+]=[N-])C(COP(=O)(Oc3cccc([N+](=O)[O-])c3)Oc3cccc([N+](=O)[O-])c3)O2)c(=O)[nH]c1=O (configuration not stated) | 3.8 | 3.8 | 36000 | 2.5 | 85000 | 3.1
Cc1cn(C2CC(N=[N+]=[N-])C(COP(=O)(Oc3ccc([N+](=O)[O-])cc3)Oc3ccc([N+](=O)[O-])cc3)O2)c(=O)[nH]c1=O (configuration not stated) | 9 | 15 | 50000 | 13 | 50000 | 10
Cc1cn([C@H]2C[C@H](N=[N+]=[N-])[C@@H](CO)O2)c(=O)[nH]c1=O [ZIDOVUDINE] | – | 3.5 | 6000 | 2.5 | > 100000 | –
